Experimental data taken from patent publication US7563805B2, “Tri-, tetra-substituted-3-aminopyrrolidine derivative” (Daiichi Pharmaceutical Co., Ltd., priority 2005, dated 2009).
In brackets after ≈: the same amount, converted by molar mass.

What was measured:
E. coli NIHJ = experiment: antibacterial activity (MIC), standard method of Japanese Society of Chemotherapy; conditions: Escherichia coli
P. vulgaris, 08601 = experiment: as above; conditions: Proteus vulgaris, 08601, P. vulgaris
S. marscecens, 10100 = experiment: as above
P. aeruginosa, 32121 = experiment: as above; conditions: Pseudomonas aeruginosa
S. aureus, 209P = experiment: as above; conditions: Staphylococcus aureus
S. epidermidis, 56500 = experiment: as above; conditions: Staphylococcus epidermidis, 56500, S. epidermidis
E. faecalis, ATCC 19433 = experiment: as above; conditions: Enterococcus faecalis, ATCC19433, E. faecalis
[1] = system: S. aureus, 87037 (LVFX-resistant MRSA); experiment: as above; conditions: Staphylococcus aureus, MRSA
[2] = system: S. pneumoniae, J24 (penicillin-intermediate resistant bacteria); experiment: as above; conditions: Streptococcus pneumoniae
P. aeruginosa, 32104 = experiment: as above; conditions: Pseudomonas aeruginosa
hERG K+ channel = hERG K+ channel (Homo sapiens, UniProt Q12809); experiment: hERG-K^+ channel blocking effect
[3] = system: Mycobacterium tuberculosis (sensitive bacteria); experiment: anti-Mycobacterium tuberculosis (sensitive bacteria) activity, MIC; type: cell-based
[4] = system: Mycobacterium tuberculosis (quinolone sensitive); experiment: anti-Mycobacterium tuberculosis (quinolone sensitive) activity, MIC; type: cell-based
[5] = S. aureus, 87037 (LVFX-resistant MRSA)

hERG K+ channel, sequence (Q12809 whole entry): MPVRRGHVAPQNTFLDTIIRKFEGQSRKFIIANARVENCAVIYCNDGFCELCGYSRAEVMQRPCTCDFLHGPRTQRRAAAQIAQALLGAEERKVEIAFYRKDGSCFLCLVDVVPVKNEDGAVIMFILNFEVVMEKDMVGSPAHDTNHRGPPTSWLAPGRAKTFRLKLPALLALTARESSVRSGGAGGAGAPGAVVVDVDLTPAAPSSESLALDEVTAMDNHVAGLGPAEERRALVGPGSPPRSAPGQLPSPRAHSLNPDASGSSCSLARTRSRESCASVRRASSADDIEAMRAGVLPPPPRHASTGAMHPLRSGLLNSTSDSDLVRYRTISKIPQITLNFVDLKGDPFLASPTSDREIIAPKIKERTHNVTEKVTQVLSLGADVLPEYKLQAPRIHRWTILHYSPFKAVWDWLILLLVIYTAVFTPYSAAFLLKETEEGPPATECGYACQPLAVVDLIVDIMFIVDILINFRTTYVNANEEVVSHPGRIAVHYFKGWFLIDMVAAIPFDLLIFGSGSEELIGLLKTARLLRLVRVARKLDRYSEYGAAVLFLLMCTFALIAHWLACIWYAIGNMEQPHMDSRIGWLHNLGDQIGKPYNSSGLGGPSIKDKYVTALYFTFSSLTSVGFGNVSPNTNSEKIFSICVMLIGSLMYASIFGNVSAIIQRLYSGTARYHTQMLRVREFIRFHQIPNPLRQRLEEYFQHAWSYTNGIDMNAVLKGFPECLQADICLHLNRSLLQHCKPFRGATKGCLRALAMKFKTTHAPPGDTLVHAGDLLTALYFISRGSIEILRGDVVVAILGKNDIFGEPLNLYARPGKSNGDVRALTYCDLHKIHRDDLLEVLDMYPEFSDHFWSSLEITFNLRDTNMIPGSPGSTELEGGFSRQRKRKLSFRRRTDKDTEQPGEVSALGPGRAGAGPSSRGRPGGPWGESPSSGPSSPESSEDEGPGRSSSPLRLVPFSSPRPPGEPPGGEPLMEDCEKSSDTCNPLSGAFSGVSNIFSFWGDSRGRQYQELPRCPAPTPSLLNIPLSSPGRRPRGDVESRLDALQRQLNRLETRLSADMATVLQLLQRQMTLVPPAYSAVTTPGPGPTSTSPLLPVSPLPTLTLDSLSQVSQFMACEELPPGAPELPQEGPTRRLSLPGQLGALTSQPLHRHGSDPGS

COc1c(N2CC(C)[C@@](N)(CF)C2)c(F)cc2c(=O)c(C(=O)O)cn([C@@H]3C[C@@H]3F)c12 (stereo partly drawn) [Example 28, 7-[(3S)-3-Amino-3-fluoromethyl-4-methylpyrrolidin-1-yl]-6-fluoro-1-[(1R,2S)-2-fluoro-1-cyclopropyl]-8-methoxy-1,4-dihydro-4-oxoquinoline-3-carboxylic acid]
melting point: 167 to 169 °C | MIC (E. coli NIHJ): 0.025 µg/mL (≈ 0.0588 µM) | MIC (P. vulgaris, 08601): 0.05 µg/mL (≈ 0.118 µM) | MIC (S. marscecens, 10100): 0.39 µg/mL (≈ 0.917 µM) | MIC (P. aeruginosa, 32121): 0.39 µg/mL (≈ 0.917 µM) | MIC (S. aureus, 209P): 0.025 µg/mL (≈ 0.0588 µM) | MIC (S. epidermidis, 56500): 0.05 µg/mL (≈ 0.118 µM) | MIC (E. faecalis, ATCC 19433): 0.2 µg/mL (≈ 0.47 µM) | MIC [1, 5]: 0.2 µg/mL (≈ 0.47 µM) | MIC [2]: 0.1 µg/mL (≈ 0.235 µM)

COc1c(N2CC(C)C(C)(N)C2)c(F)cc2c(=O)c(C(=O)O)cn([C@@H]3C[C@@H]3F)c12 (relative stereo) [Example 1, 7-[(3R*,4S*)-3-Amino-3,4-dimethylpyrrolidin-1-yl]-6-fluoro-1-[(1R,2S)-2-fluorocyclopropyl]-8-methoxy-1,4-dihydro-4-oxoguinoline-3-carboxylic acid]
MIC (E. coli NIHJ): 0.025 µg/mL (≈ 0.0614 µM) | MIC (P. vulgaris, 08601): 0.05 µg/mL (≈ 0.123 µM) | MIC (S. marscecens, 10100): 0.2 µg/mL (≈ 0.491 µM) | MIC (P. aeruginosa, 32104): 0.39 µg/mL (≈ 0.957 µM) | MIC (P. aeruginosa, 32121): 0.2 µg/mL (≈ 0.491 µM) | MIC (S. aureus, 209P): 0.025 µg/mL (≈ 0.0614 µM) | MIC (S. epidermidis, 56500): 0.1 µg/mL (≈ 0.245 µM) | MIC (E. faecalis, ATCC 19433): 0.2 µg/mL (≈ 0.491 µM) | MIC [1, 5]: 0.78 µg/mL (≈ 1.91 µM) | MIC [2]: 0.1 µg/mL (≈ 0.245 µM)

C[C@H]1COc2c(N3CCN(C)CC3)c(F)cc3c(=O)c(C(=O)O)cn1c23 [LVFX, levofloxacin, reference compound]
MIC (E. coli NIHJ): 0.012 µg/mL (≈ 0.0332 µM) | MIC (P. vulgaris, 08601): 0.012 µg/mL (≈ 0.0332 µM) | MIC (S. marscecens, 10100): 0.1 µg/mL (≈ 0.277 µM) | MIC (P. aeruginosa, 32104): 0.2 µg/mL (≈ 0.553 µM) | MIC (P. aeruginosa, 32121): 0.1 µg/mL (≈ 0.277 µM) | MIC (S. aureus, 209P): 0.2 µg/mL (≈ 0.553 µM) | MIC (S. epidermidis, 56500): 0.39 µg/mL (≈ 1.08 µM) | MIC (E. faecalis, ATCC 19433): 0.78 µg/mL (≈ 2.16 µM) | MIC [1, 5]: > 6.25 µg/mL | MIC [2]: 0.78 µg/mL (≈ 2.16 µM)

COc1c(N2C[C@@H](CF)[C@@](C)(N)C2)c(F)cc2c(=O)c(C(=O)O)cn([C@@H]3C[C@@H]3F)c12 [Example 24, 7-[(3R,4R)-3-Amino-4-fluoromethyl-3-methylpyrrolidin-1-yl]-6-fluoro-1-[(1R,2S)-2-fluoro-1-cyclopropyl]-8-methoxy-1,4-dihydro-4-oxoquinoline-3-carboxylic acid]
melting point: 185 to 188 °C

COc1c(N2CC(F)[C@](C)(N)C2)c(F)cc2c(=O)c(C(=O)O)cn([C@@H]3C[C@@H]3F)c12 (single isomer, unassigned) [Example 25]
melting point: 160 to 163 °C | inhibition at 30 µM (hERG K+ channel): 2 ± 7.2% | inhibition at 100 µM (hERG K+ channel): 4.2 ± 7.9% | inhibition at 300 µM (hERG K+ channel): 17.1 ± 14.4%

COc1c(N2CCNC(C)C2)c(F)cc2c(=O)c(C(=O)O)cn(C3CC3)c12 (stereo not drawn) [GTFX, gatifloxacin, reference compound]
inhibition at 30 µM (hERG K+ channel): 8.1 ± 6% | inhibition at 100 µM (hERG K+ channel): 17.6 ± 11.5% | inhibition at 300 µM (hERG K+ channel): 39 ± 10.8% | MIC (E. coli NIHJ): 0.006 µg/mL (≈ 0.016 µM) | MIC (P. vulgaris, 08601): 0.006 µg/mL (≈ 0.016 µM) | MIC (S. marscecens, 10100): 0.1 µg/mL (≈ 0.266 µM) | MIC (P. aeruginosa, 32104): 0.2 µg/mL (≈ 0.533 µM) | MIC (P. aeruginosa, 32121): 0.1 µg/mL (≈ 0.266 µM) | MIC (S. aureus, 209P): 0.05 µg/mL (≈ 0.133 µM) | MIC (S. epidermidis, 56500): 0.2 µg/mL (≈ 0.533 µM) | MIC (E. faecalis, ATCC 19433): 0.39 µg/mL (≈ 1.04 µM) | MIC [1]: 1.56 µg/mL (≈ 4.16 µM) | MIC [2]: 0.2 µg/mL (≈ 0.533 µM)

CO[C@H]1/C=C/O[C@@]2(C)Oc3c(C)c(O)c4c(O)c(c(/C=N/N5CCN(C)CC5)c(O)c4c3C2=O)NC(=O)/C(C)=C\C=C\[C@H](C)[C@H](O)[C@@H](C)[C@@H](O)[C@@H](C)[C@H](OC(C)=O)[C@@H]1C [RFP, Rifampicin]
MIC ([3]; H37RV, strain H37Rv): 0.125 µg/mL (≈ 0.152 µM) | MIC ([3]; strain Kurono): 0.06 µg/mL (≈ 0.0729 µM) | MIC ([3]; strain Ravenel): 0.125 µg/mL (≈ 0.152 µM) | MIC ([3]; strain TB-s 2): 0.03 µg/mL (≈ 0.0365 µM) | MIC ([3]; strain TB-s 3): 0.125 µg/mL (≈ 0.152 µM) | MIC ([3]; strain TB-s 4): 0.06 µg/mL (≈ 0.0729 µM) | MIC ([3]; strain TB-s 5): 0.06 µg/mL (≈ 0.0729 µM) | MIC ([3]; strain TB-s 6): 0.125 µg/mL (≈ 0.152 µM) | MIC ([3]; strain TB-s 7): 0.06 µg/mL (≈ 0.0729 µM) | MIC ([3]; strain TB-s 8): 0.015 µg/mL (≈ 0.0182 µM) | MIC ([3]; strain TB-s 9): 0.06 µg/mL (≈ 0.0729 µM) | MIC ([3]; strain TB-s 10): 0.06 µg/mL (≈ 0.0729 µM) | MIC ([3]; strain TB-s 11): 0.06 µg/mL (≈ 0.0729 µM) | MIC ([3]; strain TB-s 12): 0.125 µg/mL (≈ 0.152 µM) | MIC ([3]; strain TB-s 13): 0.06 µg/mL (≈ 0.0729 µM) | MIC ([3]; strain TB-s 14): 0.03 µg/mL (≈ 0.0365 µM) | MIC ([3]; strain TB-s 15): 0.06 µg/mL (≈ 0.0729 µM) | MIC ([3]; strain TB-s 16): 0.06 µg/mL (≈ 0.0729 µM) | MIC ([3]; strain TB-s 17): 0.06 µg/mL (≈ 0.0729 µM) | MIC ([3]; strain TB-s 18): 0.03 µg/mL (≈ 0.0365 µM) | MIC ([3]; strain TB-s 19): 0.125 µg/mL (≈ 0.152 µM) | MIC ([3]; strain TB-s 20): 0.25 µg/mL (≈ 0.304 µM) | MIC ([3]; strain TB-s 21): 0.03 µg/mL (≈ 0.0365 µM) | MIC ([3]; strain TB-s 22): 0.015 µg/mL (≈ 0.0182 µM) | MIC ([4]; strain 1 (QR-3)): > 128 µg/mL | MIC ([4]; strain 2 (QR-6)): > 128 µg/mL | MIC ([4]; strain 3 (QR-1)): 128 µg/mL (≈ 156 µM) | MIC ([4]; strain 4 (QR-9)): > 128 µg/mL | MIC ([4]; strain MDR 1): 16 µg/mL (≈ 19.4 µM) | MIC ([4]; strain MDR 3): 128 µg/mL (≈ 156 µM) | MIC ([4]; strain MDR 4): 64 µg/mL (≈ 77.8 µM) | MIC ([4]; strain MDR 5): 32 µg/mL (≈ 38.9 µM) | MIC ([4]; strain MDR 7): > 128 µg/mL | MIC ([4]; strain MDR 9): 128 µg/mL (≈ 156 µM) | MIC ([4]; strain MDR 12): 128 µg/mL (≈ 156 µM) | MIC ([4]; strain S 1): 16 µg/mL (≈ 19.4 µM)
